Source: article PMC11500415, “Chemical inhibition of stomatal differentiation by perturbation of the master-regulatory bHLH heterodimer via an ACT-Like domain” (Nature Communications, 2024)
Several values for one entry are separate records, joined by “and”; a condition that tells them apart may be missing. Equal values may be shown once.

Legend:
SCRM-MUTE [1] = biological target: T1, SCRM-MUTE (Arabidopsis thaliana, UniProt Q9M8K6); assay: BLI of SCRM-MUTE interaction in presence of compound; type: binding, A. thaliana; details: for effect on the SCRM-MUTE heterodimerization (in words): BLI and ITC (Supplementary Fig. 9, Supplementary Tables 2, 3); for Response: BLI, GST-SCRM loaded, in nm (unit assumed)
T1 construct: MUTE (1-202); GST (N, cleaved yes); made in house; host or cells: E. coli BL21
T1 sequence (Q9M8K6 1-202): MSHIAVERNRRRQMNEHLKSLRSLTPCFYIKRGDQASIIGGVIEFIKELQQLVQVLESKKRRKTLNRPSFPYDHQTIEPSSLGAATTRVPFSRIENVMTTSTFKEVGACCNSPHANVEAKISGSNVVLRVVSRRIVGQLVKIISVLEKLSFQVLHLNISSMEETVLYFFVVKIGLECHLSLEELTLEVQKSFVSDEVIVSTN
Description: (§1) A. thaliana SCRM (1-494), ΔNSPCH (98-364), MUTE (1-202), ΔNFAMA (190-414), MUTEΔC (1-114), MUTER133A_R134A, MUTEE162A_E163A, MUTER133A_R134A_E162A_E163A, SCRM-ACTL (405-494), MUTE-ACTL (114-202), SPCH-ACTL (285-364), FAMA-ACTL (306-414), MUTE_ACTLR133A_R134A, MUTE_ACTLE162A_E163A, MUTE_ACTLR133A_R134A_E162A_E163A were cloned into pGEX-4T-1 vector with an N-terminal GST tag and a thrombin cleavage sequence. For protein expression, the constructs were transformed into E. coli strain BL21. For each transformant, a single colony was selected and incubated in 10 ml LB liquid media. The overnight-incubated E. coli suspensions were transferred to 1 L LB medium and incubated at 37 °C for around 2 h until the OD600 reached 0.4–0.6. The isopropyl β-D-1-thiogalactopyranoside ([…] of final concentration) was added to the cultures and the strains were incubated at 22 °C for a further 18 h. GST-fused proteins were purified using glutathione agarose resin. The soluble portion of the cell lysate was loaded onto a GST-Sepharose column. Nonspecifically bound proteins were removed by washing the column with 20 mM Tris pH 8.0, 200 mM NaCl. The bound GST-fused protein was eluted with 10 mm glutathione and 20 mM Tris pH 8.0, 200 mM NaCl. The GST-fused proteins were exchanged with phosphate-buffered saline buffer, and then the solution was treated with 50 μg of thrombin for 10–12 h at 16 ^οC. The GST portion of the protein was cleaved during thrombin digestion, and then the whole solution was reloaded onto the glutathione S-transferase column to obtain pure protein. The purified proteins were further purified by gel filtration on a Superdex-200 (GE) column using fast protein liquid chromatography and phosphate buffer (pH 7.2) as the eluent. The purity of the protein was checked by SDS-PAGE. For detailed lists of oligo DNA and plasmid information, see Supplementary Tables 5, 6, respectively.
The binding affinities of SCRM to MUTE / MUTER133A_R134A / MUTEE162A_E163A / MUTER133A_R134A_E162A_E163A in presence and absence of Stomidazolone (3) and its analogues (AYSJ1059 (5) and AYSJ1061 (6)), and Stomidazolone / AYSJ1059 / AYSJ1061 interactions with GST-tagged SCRM, MUTE, SPCH, FAMA, MUTE ΔACTL, MUTE_ACTL, SCRM_ACTL, SPCH_ACTL and FAMA_ACTL, MUTER133A_134A, MUTEE162A_E163A, MUTER133A_R134A_E162A_E163A were measured using the Octet Red96 system (ForteBio, Pall Life Sciences) following the manufacturer’s protocols. The optical probes coated with anti-GST were first loaded with 500 nM GST tagged proteins before kinetic binding analyses. The experiment was performed in 96-well plates maintained at 30 °C. Each well was loaded with 200 μL reaction volume for the experiment. The binding buffer used in these experiments contained 1× PBS supplemented with 2% DMSO, 0.02% Tween20. The concentrations of the Stomidazolone as the analyte in the binding buffer were 100, 50, 25, 12.5, 6.25, 3.12, and 1.56 μM. There was no binding of the analytes to the unloaded probes as shown by the control wells. Binding kinetics to all seven concentrations of the analytes were measured simultaneously using default parameters on the instrument. The data were analyzed using the Octet data analysis software. The association and dissociation curves were fit with the 1:1 homogeneous ligand model. The kobs (observed rate constant) values were used to calculate Kd, with steady-state analysis of the direct binding. See Supplementary Table 3 for details.

SCRM-MUTE [2] = biological target: T1, SCRM-MUTE; assay: ITC of SCRM binding to MUTE in presence of compound; parameters: species or system A. thaliana; details: for n of SCRM_MUTE binding: without 0.96; for -T△S of SCRM_MUTE binding: without 25.3 ± 0.5; for △G of SCRM_MUTE binding: without -5.2 ± 0.2; for △H of SCRM_MUTE binding: without -30.5 ± 0.6
Description: as §1
(§2) Binding of the small molecule Stomidazolone (3) to SCRM, MUTE, SPCH, FAMA, MUTEΔC, MUTE_ACTL, SCRM_ACTL, SPCH_ACTL and FAMA_ACTL, MUTER133A_R134A, MUTEE162A_E163A, MUTER133A_R134A_E162A_E163A, as well as SCRM binding to MUTE in the presence and absence of Stomidazolone (3) / AYSJ1059 (5) /AYSJ1061 (6) was characterized at 30 °C using a Malvern PEAQ-ITC microcalorimeter. All the protein samples were dialyzed overnight using PBS buffer containing 2% DMSO and 1 mM DTT. Stomidazolone was dissolved in PBS buffer containing 2% DMSO and 1 mM DTT. Titrations were performed by injecting 1 × 0.5-μL and 12 × 3-μL or 1 × 0.75-μL and 18 × 2-μL or 1 × 0.2-μL and 25 × 1.3-μL aliquots of 1 mM Stomidazolone / AYSJ1059 / AYSJ1061 to 5-30 μM of protein in PBS buffer pH 7.4, containing 2% DMSO and 1 mM DTT. All titrations were carried out at least twice. The raw data were corrected using buffer and protein controls and analyzed using the software supplied by the manufacturer. See Supplementary Table 3 for details.

MUTE_ACTL = biological target: T2, MUTE_ACTL (Arabidopsis thaliana, UniProt Q9M8K6); assay: ITC direct binding; parameters: species or system A. thaliana; details: for binding to MUTE analyzed by ITC (in words): ITC (Supplementary Fig. 8, Supplementary Table 2)
T2 construct: MUTE-ACTL (114-202); made in house; host or cells: E. coli BL21
Description: as §1, §2

Cc1ccc(C2(NS(=O)(=O)c3ccccc3)N=C(c3ccccc3)C(=O)N2S(=O)(=O)c2ccccc2)cc1 (centres unmarked) [AYSJ1059]
effect on the SCRM-MUTE heterodimerization (in words) (SCRM-MUTE [1]): minimal effects
n of SCRM_MUTE binding (SCRM-MUTE [2]): 1.0
-T△S of SCRM_MUTE binding (SCRM-MUTE [2]): 27.2 ± 0.6
△G of SCRM_MUTE binding (SCRM-MUTE [2]): -6.3 ± 0.2
△H of SCRM_MUTE binding (SCRM-MUTE [2]): -33.5 ± 0.6
binding to MUTE analyzed by ITC (in words) (MUTE_ACTL): no binding

O=C1C(c2ccccc2)=NC(NS(=O)(=O)c2ccccc2)(c2ccc(Br)cc2)N1S(=O)(=O)c1ccccc1 (centres unmarked) [AYSJ1061]
effect on the SCRM-MUTE heterodimerization (in words) (SCRM-MUTE [1]): minimal effects
n of SCRM_MUTE binding (SCRM-MUTE [2]): 1.1
-T△S of SCRM_MUTE binding (SCRM-MUTE [2]): 35.3 ± 0.6
△G of SCRM_MUTE binding (SCRM-MUTE [2]): -10.2 ± 0.2
△H of SCRM_MUTE binding (SCRM-MUTE [2]): -45.5 ± 0.6
binding to MUTE analyzed by ITC (in words) (MUTE_ACTL): no binding

O=C1C(c2ccccc2)=NC(NS(=O)(=O)c2ccccc2)(c2ccccc2)N1S(=O)(=O)c1ccccc1 (centres unmarked) [Stomidazolone]
Response (SCRM-MUTE [1]; MUTE+Stomid Conc. 78 nM): 0.031
Response (SCRM-MUTE [1]; MUTE+Stomid Conc. 78 nM, listed as Stomid): 0.0213
Response (SCRM-MUTE [1]; MUTE+Stomid Conc. 156 nM): 0.0603 and 0.0323
Response (SCRM-MUTE [1]; MUTE+Stomid Conc. 312.5 nM): 0.0687 and 0.078
Response (SCRM-MUTE [1]; MUTE+Stomid Conc. 625 nM): 0.1313 and 0.1154
Response (SCRM-MUTE [1]; MUTE+Stomid Conc. 1250 nM): 0.2145 and 0.1812
Response (SCRM-MUTE [1]; MUTE+Stomid Conc. 2500 nM): 0.2742 and 0.2312
Response (SCRM-MUTE [1]; MUTE+Stomid Conc. 5000 nM): 0.2812 and 0.3134
n of SCRM_MUTE binding (SCRM-MUTE [2]): 0.91
-T△S of SCRM_MUTE binding (SCRM-MUTE [2]): 5.2 ± 0.4
△G of SCRM_MUTE binding (SCRM-MUTE [2]): -2.3 ± 0.2
△H of SCRM_MUTE binding (SCRM-MUTE [2]): -7.5 ± 0.3
driving force of binding to the ACTL domain (in words) (MUTE_ACTL; ITC data): primarily driven by enthalpic interactions
-T△S (MUTE_ACTL; ITC, MUTE_ACTL): 14.4 ± 0.3
△G (MUTE_ACTL; ITC, MUTE_ACTL): -8.1 ± 0.2
△H (MUTE_ACTL; ITC, MUTE_ACTL): -22.5 ± 0.5
Kd (MUTE_ACTL; ITC, MUTE_ACTL, ND = no binding): 9.8 ± 1.3 µM
